Results from article PMC12136037, “Type II kinase inhibitors that target Parkinson’s disease–associated LRRK2” (Science Advances, 2025).
“And” between values parts separate entries of the source, which are not always exact repeats. Identical values can stand only once.

Molecular target: T1, LRRK2 (Homo sapiens, UniProt Q5S007)
T1 construct: wild-type full-length LRRK2 (pcDNA5-LRRK2, RRID: Addgene_229019)
Assay: Western blot of Rab8a phosphorylation (pT72) in 293T cells transfected with wild-type LRRK2 and GFP-Rab8a
Assay type: cell-based
Conditions: for toxicity / effect on phosphorylation of Rab8a in cells: 293T cells; for toxicity: any of the concentrations used; for effect on phosphorylation of Rab8a in cells: increasing concentrations
Description: For all in cell kinase assays, after 48 hours, transfected cells were treated with either DMSO (control) or the indicated inhibitors for 4 hours at 37°C and 5% CO2. Following treatments, cells were washed three times with ice cold PBS. Cells were then lysed in ice cold radioimmunoprecipitation assay (RIPA) lysis buffer [50 mM tris (pH 8.0), 150 mM NaCl, 1% Triton X-100, 0.1% SDS, 0.5% sodium deoxycholate, and 1 mM DTT] in the presence of complete mini EASYpack protease inhibitor cocktail and the PhosSTOP EASYpack phosphatase inhibitor cocktail (Roche). Resuspended and lysed cells were clarified by centrifugation at 13,000g for 15 min at 4°C. […] The membrane was blocked in 5% milk in 1× Tris-buffered saline (TBS) [20 mM tris (pH 8.0) and 150 mM NaCl] for 1 hour shaking at room temperature. […] Membranes were then washed three times in 1× TBS-T before imaging on Li-COR Odyssey CLx controlled by Imaging Studio software (www.licorbio.com/image-studio, RRID:SCR_015795). […] The signal intensity of each band was assessed using the Analyze>Gels tool. The band intensity for phosphorylated LRRK2 was measured and compared to total LRRK2 levels (run under identical conditions on a separate gel). Band intensity for phosphorylated Rab7 or Rab8a was measured and compared against total GFP-Rab7 or GFP-Rab8a (using anti-GFP antibody) and LRRK1/LRRK2 levels as appropriate. Comparative statistical analysis of phosphorylation levels was analyzed using a one-way analysis of variance (ANOVA) and corrected using Tukey’s multiple comparisons test in GraphPad Prism 10 (www.graphpad.com/, RRID:SCR_002798).

[1] = GFP-11 tagged WT LRRK2, 5 μM, 4 replicates

T1 sequence (Q5S007 whole entry): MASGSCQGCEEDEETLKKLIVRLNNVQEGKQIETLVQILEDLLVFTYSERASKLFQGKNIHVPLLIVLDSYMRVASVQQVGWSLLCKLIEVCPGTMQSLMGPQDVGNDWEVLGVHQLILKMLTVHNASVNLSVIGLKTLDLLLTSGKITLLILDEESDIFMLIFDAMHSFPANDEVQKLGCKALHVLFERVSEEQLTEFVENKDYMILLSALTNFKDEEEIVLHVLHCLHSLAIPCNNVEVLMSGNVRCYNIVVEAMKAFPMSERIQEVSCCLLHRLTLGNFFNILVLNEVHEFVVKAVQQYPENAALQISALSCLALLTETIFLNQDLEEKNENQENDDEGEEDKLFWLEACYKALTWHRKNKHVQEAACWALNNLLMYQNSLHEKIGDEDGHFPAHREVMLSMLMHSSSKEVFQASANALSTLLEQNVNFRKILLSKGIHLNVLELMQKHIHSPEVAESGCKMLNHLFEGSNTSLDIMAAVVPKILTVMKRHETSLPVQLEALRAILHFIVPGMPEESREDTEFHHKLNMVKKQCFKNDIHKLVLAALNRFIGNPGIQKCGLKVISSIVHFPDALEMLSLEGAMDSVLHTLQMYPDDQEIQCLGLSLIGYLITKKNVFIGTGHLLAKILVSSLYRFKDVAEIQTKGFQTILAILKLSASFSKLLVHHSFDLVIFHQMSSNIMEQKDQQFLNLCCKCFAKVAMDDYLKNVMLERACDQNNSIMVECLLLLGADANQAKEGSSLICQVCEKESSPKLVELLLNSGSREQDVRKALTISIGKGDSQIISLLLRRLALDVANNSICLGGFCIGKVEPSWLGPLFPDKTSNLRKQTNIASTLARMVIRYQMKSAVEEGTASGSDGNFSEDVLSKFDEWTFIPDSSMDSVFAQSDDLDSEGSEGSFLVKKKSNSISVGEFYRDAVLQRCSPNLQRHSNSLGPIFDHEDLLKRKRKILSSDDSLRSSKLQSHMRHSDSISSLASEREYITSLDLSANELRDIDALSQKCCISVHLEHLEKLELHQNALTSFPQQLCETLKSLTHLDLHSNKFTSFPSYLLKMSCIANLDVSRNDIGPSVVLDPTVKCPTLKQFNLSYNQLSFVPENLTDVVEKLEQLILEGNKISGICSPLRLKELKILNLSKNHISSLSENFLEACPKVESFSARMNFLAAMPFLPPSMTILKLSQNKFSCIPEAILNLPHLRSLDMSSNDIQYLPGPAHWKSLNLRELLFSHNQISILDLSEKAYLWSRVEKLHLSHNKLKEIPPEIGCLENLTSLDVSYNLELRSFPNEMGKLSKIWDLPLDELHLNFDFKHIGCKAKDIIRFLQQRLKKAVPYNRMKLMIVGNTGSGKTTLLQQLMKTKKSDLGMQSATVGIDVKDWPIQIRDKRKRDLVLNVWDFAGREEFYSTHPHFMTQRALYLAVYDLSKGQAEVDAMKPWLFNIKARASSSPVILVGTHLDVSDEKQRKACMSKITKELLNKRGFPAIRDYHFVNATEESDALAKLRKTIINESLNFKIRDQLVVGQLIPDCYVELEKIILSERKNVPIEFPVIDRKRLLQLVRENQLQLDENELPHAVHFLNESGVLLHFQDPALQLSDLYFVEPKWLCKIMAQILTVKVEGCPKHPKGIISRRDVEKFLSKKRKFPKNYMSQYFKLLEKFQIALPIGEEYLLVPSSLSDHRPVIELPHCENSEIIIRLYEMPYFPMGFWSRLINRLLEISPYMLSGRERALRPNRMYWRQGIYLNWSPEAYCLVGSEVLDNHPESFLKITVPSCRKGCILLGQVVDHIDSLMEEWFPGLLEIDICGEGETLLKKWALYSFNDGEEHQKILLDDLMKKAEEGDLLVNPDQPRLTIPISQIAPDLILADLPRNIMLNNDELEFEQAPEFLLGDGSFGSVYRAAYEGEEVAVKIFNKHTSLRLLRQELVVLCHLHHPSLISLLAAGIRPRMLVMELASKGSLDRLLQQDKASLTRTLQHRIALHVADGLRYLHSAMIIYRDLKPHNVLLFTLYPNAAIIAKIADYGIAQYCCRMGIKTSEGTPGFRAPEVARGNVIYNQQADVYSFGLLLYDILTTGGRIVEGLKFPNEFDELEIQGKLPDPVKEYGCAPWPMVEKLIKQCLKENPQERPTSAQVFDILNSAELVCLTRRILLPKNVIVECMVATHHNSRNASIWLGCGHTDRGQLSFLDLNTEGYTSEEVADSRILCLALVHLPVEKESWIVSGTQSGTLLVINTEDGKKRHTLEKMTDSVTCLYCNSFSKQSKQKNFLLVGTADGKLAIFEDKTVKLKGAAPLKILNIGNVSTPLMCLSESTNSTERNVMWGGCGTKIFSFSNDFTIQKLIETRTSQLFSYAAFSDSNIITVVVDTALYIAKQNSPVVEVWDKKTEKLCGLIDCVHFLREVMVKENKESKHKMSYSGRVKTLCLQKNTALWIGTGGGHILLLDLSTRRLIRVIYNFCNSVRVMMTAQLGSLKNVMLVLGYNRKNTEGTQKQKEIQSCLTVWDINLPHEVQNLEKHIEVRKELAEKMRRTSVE

SMILES | pRab8/Rab8/LRRK2 normalized to DMSO, Mean (250 nM, 4 h, 3 replicates) | pRab8/Rab8/LRRK2 normalized to DMSO, Mean (500 nM, 4 h, 3 replicates) | pRab8/Rab8/LRRK2 normalized to DMSO, Mean (1 μM, 4 h, 3 replicates) | pRab8/Rab8/LRRK2 normalized to DMSO, Mean (5 μM, 4 h, 3 replicates) | pRab8/Rab8/LRRK2 normalized to DMSO, Mean (10 μM, 4 h, 3 replicates) | toxicity | effect on phosphorylation of Rab8a in cells | pRab8/Rab8/LRRK2 normalized to DMSO, Mean [1] | other results
Cc1ccc(-n2nc(C(C)(C)C)cc2NC(=O)Nc2cccc(-c3c[nH]c4nc(Cl)nc(N5CCOCC5)c34)c2)cc1 [Compound 30] | 1.123 | 0.8664 | 0.8611 | 0.2926 | 0.2543 | Toxicity did not appear to be an issue | reduced phosphorylation of Rab8a in a dose-dependent manner | 0.2436 | pRab8/Rab8/LRRK2 normalized to DMSO (250 nM, 4 h, individual Western blots, listed as 277): 1.0545 and 1.033 and 1.2826; pRab8/Rab8/LRRK2 normalized to DMSO (500 nM, 4 h, individual Western blots, listed as 277): 0.8279 and 0.7001 and 1.071; pRab8/Rab8/LRRK2 normalized to DMSO (1 μM, 4 h, individual Western blots, listed as 277): 0.8817 and 0.6143 and 1.087; pRab8/Rab8/LRRK2 normalized to DMSO (5 μM, 4 h, individual Western blots, listed as 277): 0.3266 and 0.2385 and 0.3127; pRab8/Rab8/LRRK2 normalized to DMSO (10 μM, 4 h, individual Western blots, listed as 277): 0.2723 and 0.2085 and 0.282; pRab8/Rab8/LRRK2 normalized to DMSO (GFP-11 tagged WT LRRK2, 5 μM, individual blots, normalized to WT DMSO, listed as RN277): 0.1001 and 0.2331 and 0.598 and 0.04303
CCSc1nc(NC)c2c(-c3cccc(NC(=O)Nc4cc(C(C)(C)C)nn4-c4ccc(C)cc4)c3)c[nH]c2n1 [Compound 32] | 1.109 | 0.9957 | 0.8556 | 0.5047 | 0.408 | Toxicity did not appear to be an issue | reduced phosphorylation of Rab8a in a dose-dependent manner | 0.2782 | pRab8/Rab8/LRRK2 normalized to DMSO (250 nM, 4 h, individual Western blots, listed as 341): 1.128 and 0.9817 and 1.217; pRab8/Rab8/LRRK2 normalized to DMSO (500 nM, 4 h, individual Western blots, listed as 341): 1.05 and 0.7587 and 1.178; pRab8/Rab8/LRRK2 normalized to DMSO (1 μM, 4 h, individual Western blots, listed as 341): 0.8182 and 0.7772 and 0.9713; pRab8/Rab8/LRRK2 normalized to DMSO (5 μM, 4 h, individual Western blots, listed as 341): 0.5692 and 0.3629 and 0.5821; pRab8/Rab8/LRRK2 normalized to DMSO (10 μM, 4 h, individual Western blots, listed as 341): 0.4385 and 0.2564 and 0.5293; pRab8/Rab8/LRRK2 normalized to DMSO (GFP-11 tagged WT LRRK2, 5 μM, individual blots, normalized to WT DMSO, listed as RN341): 0.1752 and 0.6963 and 0.1155 and 0.1257
Cc1ccc(C(=O)Nc2ccc(CN3CCN(C)CC3)c(C(F)(F)F)c2)cc1C#Cc1cnc2cccnn12 [Ponatinib, reference compound] | – | – | – | 0.2682 | – | – | – | – | pRab8/Rab8/LRRK2 normalized to DMSO (5 μM, 4 h, individual Western blots): 0.2608 and 0.2643 and 0.2795
